Laboratory results taken from US20260132132A1, “3A,4,5,6-TETRAHYDRO-1 H-PYRAZOLO[3,4-C]PYRIDIN-7(7AH)-ONE DERIVATIVES AS FACTOR XIIA INHIBITORS” (KALVISTA PHARMACEUTICALS LIMITED, priority 2022, published 2026).
pIC50: −log10 of the molar value.

Target: T1, Human Factor XIIa (hFXIIa) (Homo sapiens, UniProt P00748)
T1 construct: purchased Enzyme Research Laboratories
T1 sequence (P00748 373-615 limits assumed): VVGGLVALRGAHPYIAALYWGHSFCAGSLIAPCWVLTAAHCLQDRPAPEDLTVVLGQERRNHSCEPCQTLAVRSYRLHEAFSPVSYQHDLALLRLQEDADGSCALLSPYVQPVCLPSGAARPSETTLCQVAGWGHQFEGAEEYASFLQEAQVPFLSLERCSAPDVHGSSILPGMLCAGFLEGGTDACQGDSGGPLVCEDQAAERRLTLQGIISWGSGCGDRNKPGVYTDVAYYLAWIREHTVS
T1 sequence (P00748 20-372 partner limits assumed): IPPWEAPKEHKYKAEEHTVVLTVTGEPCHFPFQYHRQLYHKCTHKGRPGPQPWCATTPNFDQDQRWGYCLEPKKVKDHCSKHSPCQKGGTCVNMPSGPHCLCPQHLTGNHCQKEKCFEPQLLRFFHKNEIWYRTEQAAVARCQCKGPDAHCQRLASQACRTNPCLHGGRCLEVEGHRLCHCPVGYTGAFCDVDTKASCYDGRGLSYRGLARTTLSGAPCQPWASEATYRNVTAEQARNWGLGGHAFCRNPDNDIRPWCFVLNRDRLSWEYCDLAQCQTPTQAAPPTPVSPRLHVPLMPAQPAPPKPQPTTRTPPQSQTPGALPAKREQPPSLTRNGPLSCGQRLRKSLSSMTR
Experiment: Determination of Human Factor XIIa (hFXIIa) inhibition, fluorogenic substrate IC50 assay
Type: biochemical
Conditions: fluorogenic substrate H-DPro-Phe-Arg-AFC at Km, 25° C., read-out: Human FXIIa IC50
Experimental: Determination of Human Factor XIIa (hFXIIa) inhibition
The Km for the cleavage of the substrate by hFXIIa was determined by standard transformation of the Michaelis-Menten equation, with subsequent inhibition assays performed at substrate Km concentration.

pIC50	SMILES
4.40 to 5.00	CCNC(=O)c1nn(-c2cccc(Cl)c2)c2c1CCN(c1cccc(N3C(=O)C[C@H]4C[C@H]43)c1)C2=O (single isomer, unassigned) [Example 1407, 1-(3-Chlorophenyl)-N-ethyl-7-oxo-6-(3-((1R*,5R*)-3-oxo-2-azabicyclo[3.1.0]hexan-2-yl)phenyl)-4,5,6,7-tetrahydro-1H-pyrazolo[3,4-c]pyridine-3-carboxamide]
6.52 to 7.00	CN1CCc2ccc(N3CCc4c(C(=O)NCC5(CO)CCC5)nn(-c5cccc(Cl)c5)c4C3=O)cc2C1 [Example 1049, 1-(3-chlorophenyl)-N-((1-(hydroxymethyl)cyclobutyl)methyl)-6-(2-methyl-1,2,3,4-tetrahydroisoquinolin-7-yl)-7-oxo-4,5,6,7-tetrahydro-1H-pyrazolo[3,4-c]pyridine-3-carboxamide]
6.00 to 6.52	CN1CCc2ccc(N3CCc4c(C(=O)NCC56COC(CO)(C5)C6)nn(-c5cccc(Cl)c5)c4C3=O)cc2C1 [Example 1050, 1-(3-chlorophenyl)-N-((1-(hydroxymethyl)-2-oxabicyclo[2.1.1]hexan-4-yl)methyl)-6-(2-methyl-1,2,3,4-tetrahydroisoquinolin-7-yl)-7-oxo-4,5,6,7-tetrahydro-1H-pyrazolo[3,4-c]pyridine-3-carboxamide]
6.52 to 7.00	CCCN1CCc2ccc(N3CCc4c(C(=O)NCC5CC5)nn(-c5cccc(Cl)c5)c4C3=O)cc2C1 [Example 1052, 1-(3-chlorophenyl)-N-(cyclopropylmethyl)-7-oxo-6-(2-propyl-1,2,3,4-tetrahydroisoquinolin-7-yl)-4,5,6,7-tetrahydro-1H-pyrazolo[3,4-c]pyridine-3-carboxamide]
6.52 to 7.00	COCCCN1CCc2ccc(N3CCc4c(C(=O)NCC5CC5)nn(-c5cccc(Cl)c5)c4C3=O)cc2C1 [Example 1053, 1-(3-chlorophenyl)-N-(cyclopropylmethyl)-6-(2-(3-methoxypropyl)-1,2,3,4-tetrahydroisoquinolin-7-yl)-7-oxo-4,5,6,7-tetrahydro-1H-pyrazolo[3,4-c]pyridine-3-carboxamide]
6.52 to 7.00	CCN1CCc2cc(C)c(N3CCc4c(C(=O)NCC5CC5)nn(-c5cccc(Cl)c5)c4C3=O)cc2C1 [Example 1054, 1-(3-Chlorophenyl)-N-(cyclopropylmethyl)-6-(2-ethyl-6-methyl-1,2,3,4-tetrahydroisoquinolin-7-yl)-7-oxo-4,5,6,7-tetrahydro-1H-pyrazolo[3,4-c]pyridine-3-carboxamide]
6.00 to 6.52	CCN1CCc2cnc(N3CCc4c(C(=O)NCC5CC5)nn(-c5cccc(Cl)c5)c4C3=O)nc2C1 [Example 1056, 1-(3-Chlorophenyl)-N-(cyclopropylmethyl)-6-(7-ethyl-5,6,7,8-tetrahydropyrido[3,4-d]pyrimidin-2-yl)-7]
6.00 to 6.52	CN1CCc2ccc(N3CCc4c(C(=O)NC5CCNC(=O)C5)nn(-c5cccc(Cl)c5)c4C3=O)cc2C1 (stereo not drawn) [Example 1057, 1-(3-chlorophenyl)-6-(2-methyl-1,2,3,4-tetrahydroisoquinolin-7-yl)-7-oxo-N-(2-oxopiperidin-4-yl)-4,5,6,7-tetrahydro-1H-pyrazolo[3,4-c]pyridine-3-carboxamide]

Second part, the compound before the results:

SMILES	pIC50
CN1CCC(CN2CCc3c(C(=O)NCc4ccccc4)nn(-c4cccc(Cl)c4)c3C2=O)CC1 [Example 1016, N-Benzyl-1-(3-chlorophenyl)-6-((1-methylpiperidin-4-yl)methyl)-7-oxo-4,5,6,7-tetrahydro-1H-pyrazolo[3,4-c]pyridine-3-carboxamide]	4.40 to 5.00
O=C(NCc1ccccc1)c1nn(-c2cccc(Cl)c2)c2c1CCN(c1cccc(CN3CCCC3)c1)C2=O [Example 1017, N-benzyl-1-(3-chlorophenyl)-7-oxo-6-(3-(pyrrolidin-1-ylmethyl)phenyl)-4,5,6,7-tetrahydro-1H-pyrazolo[3,4-c]pyridine-3-carboxamide]	6.00 to 6.52
O=C(NCc1ccccc1)c1nn(-c2cccc(Cl)c2)c2c1CCN(c1cccc(CN3CCOCC3)c1)C2=O [Example 1018, N-benzyl-1-(3-chlorophenyl)-6-(3-(morpholinomethyl)phenyl)-7-oxo-4,5,6,7-tetrahydro-1H-pyrazolo[3,4-c]pyridine-3-carboxamide]	5.52 to 6.00
O=C(NCc1ccccc1)c1nn(-c2cccc(Cl)c2)c2c1CCN(c1ccc3c(c1)CN(CC1CCCC1)CC3)C2=O [Example 1020, N-benzyl-1-(3-chlorophenyl)-6-(2-(cyclopentylmethyl)-1,2,3,4-tetrahydroisoquinolin-7-yl)-7-oxo-4,5,6,7-tetrahydro-1H-pyrazolo[3,4-c]pyridine-3-carboxamide]	6.00 to 6.52
CN1Cc2ccc(N3CCc4c(C(=O)NCc5ccccc5)nn(-c5cccc(Cl)c5)c4C3=O)cc2C1 [Example 1028, N-benzyl-1-(3-chlorophenyl)-6-(2-methylisoindolin-5-yl)-7-oxo-4,5,6,7-tetrahydro-1H-pyrazolo[3,4-c]pyridine-3-carboxamide]	6.00 to 6.52
NC(=O)CN1CCc2ccc(N3CCc4c(C(=O)NCC5CC5)nn(-c5cccc(Cl)c5)c4C3=O)cc2C1 [Example 1033, 6-(2-(2-amino-2-oxoethyl)-1,2,3,4-tetrahydroisoquinolin-7-yl)-1-(3-chlorophenyl)-N-(cyclopropylmethyl)-7-oxo-4,5,6,7-tetrahydro-1H-pyrazolo[3,4-c]pyridine-3-carboxamide]	5.52 to 6.00
CN1CCc2ccc(N3CCc4c(C(=O)NCC5CC5)nn(-c5cccc(Cl)c5)c4C3=O)nc2C1 [Example 1034, 1-(3-Chlorophenyl)-N-(cyclopropylmethyl)-6-(7-methyl-5,6,7,8-tetrahydro-1,7-naphthyridin-2-yl)-7-oxo-4,5,6,7-tetrahydro-1H-pyrazolo[3,4-c]pyridine-3-carboxamide]	6.00 to 6.52
CC1CCN(Cc2cccc(N3CCc4c(C(=O)NCc5ccccc5)nn(-c5cccc(Cl)c5)c4C3=O)c2)C1 (stereo not drawn) [Example 1038, N-benzyl-1-(3-chlorophenyl)-6-(3-((3-methylpyrrolidin-1-yl)methyl)phenyl)-7-oxo-4,5,6,7-tetrahydro-1H-pyrazolo[3,4-c]pyridine-3-carboxamide]	6.00 to 6.52
CC1CCCN1Cc1cccc(N2CCc3c(C(=O)NCc4ccccc4)nn(-c4cccc(Cl)c4)c3C2=O)c1 (stereo not drawn) [Example 1039, N-benzyl-1-(3-chlorophenyl)-6-(3-((2-methylpyrrolidin-1-yl)methyl)phenyl)-7-oxo-4,5,6,7-tetrahydro-1H-pyrazolo[3,4-c]pyridine-3-carboxamide]	6.00 to 6.52
CN1CCc2ncc(N3CCc4c(C(=O)NCC5CC5)nn(-c5cccc(Cl)c5)c4C3=O)cc2C1 [Example 1040, 1-(3-Chlorophenyl)-N-(cyclopropylmethyl)-6-(6-methyl-5,6,7,8-tetrahydro-1,6-naphthyridin-3-yl)-7-oxo-4,5,6,7-tetrahydro-1H-pyrazolo[3,4-c]pyridine-3-carboxamide]	5.52 to 6.00
CN1CCc2ccc(N3CCc4c(C(=O)NC5COC5)nn(-c5cccc(Cl)c5)c4C3=O)cc2C1 [Example 1041, 1-(3-chlorophenyl)-6-(2-methyl-1,2,3,4-tetrahydroisoquinolin-7-yl)-N-(oxetan-3-yl)-7-oxo-4,5,6,7-tetrahydro-1H-pyrazolo[3,4-c]pyridine-3-carboxamide]	6.00 to 6.52
CN1CCc2ccc(N3CCc4c(C(=O)NC5CCOC5)nn(-c5cccc(Cl)c5)c4C3=O)cc2C1 (stereo not drawn) [Example 1042, 1-(3-chlorophenyl)-6-(2-methyl-1,2,3,4-tetrahydroisoquinolin-7-yl)-7-oxo-N-(tetrahydrofuran-3-yl)-4,5,6,7-tetrahydro-1H-pyrazolo[3,4-c]pyridine-3-carboxamide]	6.00 to 6.52
CN1CCc2ccc(N3CCc4c(C(=O)NCC5CCO5)nn(-c5cccc(Cl)c5)c4C3=O)cc2C1 (stereo not drawn) [Example 1045, 1-(3-chlorophenyl)-6-(2-methyl-1,2,3,4-tetrahydroisoquinolin-7-yl)-N-(oxetan-2-ylmethyl)-7-oxo-4,5,6,7-tetrahydro-1H-pyrazolo[3,4-c]pyridine-3-carboxamide]	6.00 to 6.52
CN1CCc2ccc(N3CCc4c(C(=O)NCC56CC(CO)(CCO5)C6)nn(-c5cccc(Cl)c5)c4C3=O)cc2C1 [Example 1046, 1-(3-chlorophenyl)-N-((5-(hydroxymethyl)-2-oxabicyclo[3.1.1]heptan-1-yl)methyl)-6-(2-methyl-1,2,3,4-tetrahydroisoquinolin-7-yl)-7-oxo-4,5,6,7-tetrahydro-1H-pyrazolo[3,4-c]pyridine-3-carboxamide]	6.00 to 6.52
CN1CCc2ccc(N3CCc4c(C(=O)NCC5COC5)nn(-c5cccc(Cl)c5)c4C3=O)cc2C1 [Example 1047, 1-(3-chlorophenyl)-6-(2-methyl-1,2,3,4-tetrahydroisoquinolin-7-yl)-N-(oxetan-3-ylmethyl)-7-oxo-4,5,6,7-tetrahydro-1H-pyrazolo[3,4-c]pyridine-3-carboxamide]	6.00 to 6.52
Cc1cc(N2CCc3c(C(=O)NCC4CC4)nn(-c4cccc(Cl)c4)c3C2=O)cc2c1CCN(C)C2 [Example 1048, 1-(3-Chlorophenyl)-N-(cyclopropylmethyl)-6-(2,5-dimethyl-1,2,3,4-tetrahydroisoquinolin-7-yl)-7-oxo-4,5,6,7-tetrahydro-1H-pyrazolo[3,4-c]pyridine-3-carboxamide]	6.00 to 6.52
